From patent publication US6884814B2, “Phenyl benzisoxazoles as estrogenic agents” (Wyeth, priority 2001, dated 2005) come the findings set out here.

Series [1] deals with T1, human ERβ (Homo sapiens, UniProt Q92731).
T1 construct: M214-Q530 of human ERβ; Flag (C); made in house; host or cells: E. coli BL21(DE3), clarified lysate
The series can be described thus: Radioligand binding competition with [3H]-17β-estradiol, ERβ. The settings on record: human ERβ ligand binding domain, E. coli lysate, read-out: ER-β IC50.

The target in series [2] is T2, human ERα (Homo sapiens, UniProt P03372).
T2 construct: amino acids M250-V595 of human ERα; His (N); made in house; host or cells: E. coli BL21(DE3), clarified lysate
T2 sequence (P03372 250-595): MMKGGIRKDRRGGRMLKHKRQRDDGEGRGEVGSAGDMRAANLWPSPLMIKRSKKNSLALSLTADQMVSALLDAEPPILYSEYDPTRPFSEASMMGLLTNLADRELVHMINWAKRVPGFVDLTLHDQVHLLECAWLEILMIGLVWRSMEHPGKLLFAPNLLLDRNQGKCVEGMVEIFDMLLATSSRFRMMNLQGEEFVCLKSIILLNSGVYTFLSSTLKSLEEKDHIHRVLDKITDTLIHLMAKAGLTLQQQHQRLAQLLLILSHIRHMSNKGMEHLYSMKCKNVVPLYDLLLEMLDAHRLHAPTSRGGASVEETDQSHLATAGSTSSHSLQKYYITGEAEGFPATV
The series can be described thus: Radioligand binding competition with [3H]-17β-estradiol, ERα. The settings on record: human ERα ligand binding domain, E. coli lysate, read-out: ER-α IC50.

T1 sequence (Q92731 214-530): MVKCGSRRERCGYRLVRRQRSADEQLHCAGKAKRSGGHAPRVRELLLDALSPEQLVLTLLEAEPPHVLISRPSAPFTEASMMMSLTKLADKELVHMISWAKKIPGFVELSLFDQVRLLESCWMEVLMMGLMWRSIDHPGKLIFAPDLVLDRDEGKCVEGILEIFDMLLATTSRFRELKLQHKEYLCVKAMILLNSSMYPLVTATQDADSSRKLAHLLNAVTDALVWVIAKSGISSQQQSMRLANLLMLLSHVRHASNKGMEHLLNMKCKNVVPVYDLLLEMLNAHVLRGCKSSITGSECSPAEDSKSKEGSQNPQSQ

Usually IC50 stands for the concentration that gives 50% inhibition. A word on the melting point: it is the temperature, or range, at which the solid turns liquid. In turn, `Oc1ccc(-c2noc3c(Br)cc(O)cc23)cc1` [Example 13, 7-Bromo-3-(4-hydroxyphenyl)-1,2-benzisoxazol-5-ol] came in with a melting point of 267 to 270 °C. Moreover, the IC50 in series [1] was determined as 208 nM. In series [2], the IC50 came to 2000 nM.
With `Oc1ccc2c(-c3ccccc3O)noc2c1` [Example 9, 3-(2-Hydroxyphenyl)-1,2-benzisoxazol-6-ol], the IC50 in series [2] came to 5000 nM.
Molecule `Oc1ccc(O)c(-c2noc3cc(O)ccc23)c1` [Example 10, 2-(6-Hydroxy-1,2-benzisoxazol-3-yl)benzene-1,4-diol] displayed a melting point of 215 to 217 °C. The IC50 in series [1] is 254 nM. Besides, the IC50 in series [2] was 3000 nM.
On to `CCCc1cc(-c2noc3cc(O)ccc23)c(CC(C)C)cc1O` [Example 4, 3-(4-Hydroxy-2-isobutyl-5-propylphenyl)-1,2-benzisoxazol-6-ol], for which the IC50 worked out at 20 nM in series [1] and 38 nM in series [2].
